Data set [1] relates to E. coli ATCC 25922. In words: Cytoplasmic membrane depolarization, DiSC3(5). Format: cell-based, Escherichia coli. Particulars: peptide at 2× MIC or 1,000 µM, positive control Triton X-100. How it is done: The dye 3,3′-dipropylthiadicarbocyanine iodide DiSC3(5) was employed to evaluate perturbation of the bacterial membrane by our designed arginine-rich peptides. For this, a black 96-well microtiter plate containing 150 µl E. coli cells (OD600=0.5) in MH broth per well was incubated with 0.5 µM DiSC3(5) in 5 mM HEPES buffer (pH 7.4, supplemented with 5 mM glucose and 0.1 M KCl) for 15 min to allow for fluorescence quenching. Then, 2× MIC or 1 mM peptide was added, and changes in fluorescence were monitored in real-time (λex=622 nm, λem=670 nm) using a microplate reader.

Data set [2] concerns S. aureus (12600). Format: cell-based, Staphylococcus aureus. Particulars: for MIC, Control: control without serum or trypsin; for MIC, Trypsin: peptide incubated with 5 µM SGMT trypsin in 50 mM Tris-HCl, 1 mM CaCl2, pH 7.6, 24 h at 37 °C before MIC; for MIC, 20% human serum: peptide incubated with 20% human serum 24 h at 37 °C before MIC; for MIC, 50% human serum: peptide incubated with 50% human serum 24 h at 37 °C before MIC. How it is done:
(§1) The MIC of arginine-based peptides was assessed using the microbroth dilution approach. Our in vitro screening included a panel of Gram-negative bacteria, Escherichia coli (ATCC 25922 and enterohaemorrhagic O157:H7) and Pseudomonas aeruginosa (PA01 and the drug-resistant strain NCTC 13437), and Gram-positive bacteria (Staphylococcus aureus ATCC 12600). Five-millilitre overnight cultures in Lysogeny broth, prepared from single isolated colonies, were diluted to 5×10^6 c.f.u. ml^−1 mid-log phase in Mueller–Hinton (MH) broth. Next, peptide concentrations (0 to 1 mM) were serially diluted twofold in 96-well plates and incubated overnight at 37 °C with the tested bacterial strains. In each case, the MIC was determined as the lowest peptide concentration at which no detectable bacterial growth was observed, employing an absorbance-based assay using a Tecan Spark® multimode plate reader. Subsequently, 10 µl aliquots from each peptide dilution were transferred to MH agar (1.5%) plates to determine the minimum bactericidal concentration (MBC) which was assessed by establishing at which concentration no visible growth of bacteria (assessed via colony formation) on the plate was observed.
(§2) The antimicrobial activity and structural stability of arginine-rich peptides were evaluated in the presence of human serum (20% and 50 %) and 5 µM Sequencing Grade Modified Trypsin (SGMT, Promega). Briefly, fresh human blood was collected in EDTA tubes and allowed to clot at room temperature for 1 h. Serum was then collected following centrifugation at 2,000 r.p.m. for 10 min at 4 °C. Peptides were incubated with 20%, 50% human serum and 5 µM SGMT in 50 mM Tris-HCl buffer (1 mM CaCl₂, pH 7.6) for 24 h at 37 °C. After the incubation period, the solutions were further incubated with E. coli (ATCC 25922 and O157:H7), P. aeruginosa (PA01, NCTC13437) and S. aureus (ATCC12600), and the MIC was assessed as described in the ‘Antibacterial assessment’ section. Additionally, the samples were analysed using electrospray ionization MS to monitor structural changes based on the molecular weight of the peptides.

Data set [3] deals with L929 fibroblasts. Format: cell-based. Conditions: 24 h. The procedure:
The toxicity screening of arginine-rich peptides was conducted in two cell types: human red blood cells (hRBCs) and L929 fibroblasts. The peptide-induced lysis of hRBCs was estimated based on the release of haemoglobin into solution, following a previously established protocol with slight modifications. Briefly, fresh human blood was collected from a healthy donor. To isolate hRBCs from plasma, the blood was centrifuged at 2,000 r.p.m. for 10 min at 4 °C, and the cells were carefully resuspended in 0.5% suspension buffer. After, they were added to a 96-well plate containing various concentrations of peptides diluted in PBS. After incubation for 1 h at 37 °C, cells were spun at 2,000 r.p.m. for 10 min at 4 °C to pellet cell debris and the supernatant collected and measured at OD414. The data was calculated as the % haemolysis relative to the positive control (cells treated with 1% Triton X-100). The toxicity screening using L929 fibroblasts was based on the metabolic activity of cells using an MTS colourimetric assay (Fig. S2). […] The absorbance was measured at OD490 using a Tecan Spark multimode plate reader. The quantification of viable cells was expressed as a % and determined by comparing peptide-treated groups with control cells grown in their absence. […]

Data set [4] relates to S. aureus (ATCC12600). Format: cell-based, Staphylococcus aureus. The procedure: as §1
Data set [5] concerns Gram-positive and Gram-negative bacteria. Format: cell-based. Particulars: span of MIC and MBC against both Gram-positive and Gram-negative bacteria, Table 2. The procedure:
as §1

The test system of data set [6] is E. coli (ATCC25922). Format: cell-based, Escherichia coli. The procedure:
as §1

Data set [7] concerns E. coli (O157:H7). Format: cell-based, Escherichia coli. Particulars: for MBC: 10 µl aliquots plated on MH agar, no visible colonies; for MIC: MH broth, 5×10^6 cells, 24 h, 37 °C, absorbance 600 nm, triplicate. How it is done: as §1
Data set [8] concerns P. aeruginosa (PA01). Format: cell-based, Pseudomonas aeruginosa. Conditions: for MIC, Control: control without serum or trypsin; for MIC, Trypsin: peptide incubated with 5 µM SGMT trypsin in 50 mM Tris-HCl, 1 mM CaCl2, pH 7.6, 24 h at 37 °C before MIC; for MIC, 20% human serum: peptide incubated with 20% human serum 24 h at 37 °C before MIC; for MIC, 50% human serum: peptide incubated with 50% human serum 24 h at 37 °C before MIC. The procedure:
as §1, §2

The subject of data set [9] is P. aeruginosa (PA01). Format: cell-based, Pseudomonas aeruginosa. Particulars: for MIC: 24 h. The procedure:
as §1

The test system of data set [10] is E. coli (25922). Format: cell-based, Escherichia coli. Conditions: for MIC, Control: control without serum or trypsin; for MIC, Trypsin: peptide incubated with 5 µM SGMT trypsin in 50 mM Tris-HCl, 1 mM CaCl2, pH 7.6, 24 h at 37 °C before MIC; for MIC, 20% human serum: peptide incubated with 20% human serum 24 h at 37 °C before MIC; for MIC, 50% human serum: peptide incubated with 50% human serum 24 h at 37 °C before MIC. The procedure: as §1, §2

The test system of data set [11] is P. aeruginosa (NCTC13437). Format: cell-based, Pseudomonas aeruginosa. Conditions: P. aeruginosa NCTC13437 (drug-resistant). How it is done: as §1
Data set [12] has as its target T1, Sequencing Grade Modified Trypsin (Sus scrofa, UniProt P00761).
T1 construct: purchased Promega
As to the kind of experiment: Stability with trypsin by LC-MS. Format: in vitro ADME. Conditions: 5 µM SGMT trypsin, 50 mM Tris-HCl, 1 mM CaCl2, pH 7.6, 24 h, 37 °C; read-out LC-MS (ESI). How it is done: as §2

Where [13] appears, read: S. aureus ATCC12600, 10 µl aliquots plated on MH agar, no visible colonies.
Setting [14] is: S. aureus ATCC12600, MH broth, 5×10^6 cells, 24 h, 37 °C, absorbance 600 nm, triplicate.
[15] abbreviates: E. coli ATCC25922, 10 µl aliquots plated on MH agar, no visible colonies.
[16] abbreviates: E. coli ATCC25922, MH broth, 5×10^6 cells, 24 h, 37 °C, absorbance 600 nm, triplicate.
Setting [17] is: P. aeruginosa PA01, 10 µl aliquots plated on MH agar, no visible colonies.
The mark [18] stands for this setting: P. aeruginosa PA01, MH broth, 5×10^6 cells, 37 °C, absorbance 600 nm, triplicate.

Read-outs that look alike come from different tables or passages of the source. Residues, ends and D or L forms follow the SMILES beside them. No end group written: not given here. *: point of attachment. NHhexadecyl = CCCCCCCCCCCCCCCCN*

T1 sequence (P00761 9-231): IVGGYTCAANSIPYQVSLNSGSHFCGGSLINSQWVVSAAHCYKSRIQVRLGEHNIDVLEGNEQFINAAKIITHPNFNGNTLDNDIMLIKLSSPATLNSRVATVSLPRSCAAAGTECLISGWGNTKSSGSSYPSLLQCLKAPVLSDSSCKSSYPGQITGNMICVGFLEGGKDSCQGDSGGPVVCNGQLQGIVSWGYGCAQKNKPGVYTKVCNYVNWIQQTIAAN

Consider `CCCCCCCCCCCCCCCCNC(=O)[C@H](Cc1ccccc1)NC(=O)[C@H](Cc1ccccc1)NC(=O)[C@H](Cc1ccccc1)NC(=O)[C@H](Cc1ccccc1)NC(=O)[C@H](CCCNC(=N)N)NC(=O)[C@H](CCCNC(=N)N)NC(=O)[C@H](CCCNC(=N)N)NC(=O)[C@@H](N)CCCNC(=N)N` [Peptide R4F4-C16] (H-RRRRFFFF-NHhexadecyl; N-terminus and C-terminus assumed), for which, in data set [1], the “Cytoplasmic membrane depolarization, DiSC3(5) fluorescence” value is “Greater effects”. The results for the “MIC, Control” value in data set [2], in data set [8] and in data set [10] were >1,000 μM, >1,000 μM and 1,000 μM, respectively. The “MIC, Trypsin” value in data set [2], in data set [8] and in [10] was >1,000 μM throughout. The “MIC, 20% human serum” value in data set [2] is on record as >1,000 μM; in data set [8], >1,000 μM; in data set [10], 1,000 μM. Also, the “MIC, 50% human serum” value in data set [2], in data set [8] and in data set [10] was >1,000 μM throughout. The concentration for a half-maximal effect (EC50) in data set [3] is 70 µM. Further, the MBC is reported as >1,000/>1,000 μM in data set [4] (setting [13]), 1,000/>1,000 μM in [6] (setting [15]), >1,000/>1,000 μM in [7] and >1,000/>1,000 μM in [9] (setting [17]). Besides, the MIC is recorded as >1,000/>1,000 μM in [4] (setting [14]), 1,000/>1,000 μM in data set [6] (setting [16]), >1,000/>1,000 μM in data set [7] and >1,000/>1,000 μM in [9] (setting [18]). Moreover, the “MIC and MBC values over all tested strains” value in [5] is > 1,000 µM.

Turning to PRRRRFFFF [PR4F4], the MBC in data set [6] (ATCC25922) turned out to be 125 µM. The same compound registered a minimum inhibitory concentration (MIC) in data set [6] (ATCC25922, 24 h) of 62.5 µM.

Consider RRARSAVAS [RRARSAVAS], for which the “MIC, Control” value in data set [2], in data set [8] and in data set [10] was >1,000 μM each time. The “MIC, Trypsin” value in data set [2], in data set [8] and in data set [10] was >1,000 μM throughout. Also, the “MIC, 20% human serum” value in data set [2], in [8] and in data set [10] was >1,000 μM each time. The “MIC, 50% human serum” value in [2], in data set [8] and in [10] was >1,000 μM throughout. In addition, the MBC is reported as >1,000/>1,000 μM in data set [4] (setting [13]); >1,000/>1,000 μM in data set [6] (setting [15]); >1,000/>1,000 μM in data set [7]; >1,000/>1,000 μM in data set [11] (10 µl aliquots plated on MH agar, no visible colonies); >1,000/>1,000 μM in data set [9] (setting [17]). Besides, the MIC in data set [4] (setting [14]) is >1,000/>1,000 μM; in [6] (setting [16]) it was >1,000/>1,000 μM; in [7] it was >1,000/>1,000 μM; in [11] (MH broth, 5×10^6 cells, 24 h, 37 °C, absorbance 600 nm, triplicate) it was >1,000/>1,000 μM; in data set [9] (setting [18]), >1,000/>1,000 μM.

Take RRRRAAAA [Peptide R4A4]: the “MIC, Control” value in data set [2] is recorded as >1,000 μM; in [8], >1,000 μM; in data set [10], 1,000 μM. Besides, the “MIC, Trypsin” value in data set [2], in data set [8] and in data set [10] was >1,000 μM in each case. In addition, the “MIC, 20% human serum” value in data set [2] is reported as >1,000 μM; in data set [8] it was >1,000 μM; in data set [10], 1,000 μM. In addition, the “MIC, 50% human serum” value in [2], in data set [8] and in [10] was >1,000 μM in each case. Besides, the MBC in data set [4] (setting [13]) is recorded as >1,000/>1,000 μM; in [6] (setting [15]) it was 1,000/>1,000 μM; in data set [7], >1,000/>1,000 μM; in data set [9] (setting [17]), >1,000/>1,000 μM. Besides, the MIC in data set [4] (setting [14]) is >1,000/>1,000 μM; in data set [6] (setting [16]), 1,000/>1,000 μM; in [7], >1,000/>1,000 μM; in data set [9] (setting [18]), >1,000/>1,000 μM.

RRRRFFFF [Peptide R4F4] had an EC50 in data set [3] of 481 µM. Moreover, the MBC in data set [4] (ATCC12600) and in data set [9] was 250 µM each time. The MIC in data set [4] (ATCC12600, 24 h) came out at 125 µM; in data set [9], 125 µM. Besides, the “Stability with trypsin (LC chromatogram and mass spectrum)” value in data set [12] is listed as “degraded into smaller fragments”.

As for RRRRVVVV [Peptide R4V4], the “MIC, Control” value in data set [2] is reported as >1,000 μM; in data set [8], >1,000 μM; in data set [10], 1,000 μM. The “MIC, Trypsin” value in [2], in [8] and in data set [10] was >1,000 μM throughout. In addition, the “MIC, 20% human serum” value is >1,000 μM in data set [2], >1,000 μM in data set [8] and 1,000 μM in data set [10]. For the same compound, the “MIC, 50% human serum” value in data set [2], in data set [8] and in data set [10] was >1,000 μM each time. Moreover, the MBC in [4] (setting [13]) is listed as >1,000/>1,000 μM; in data set [6] (setting [15]), 1,000/>1,000 μM; in data set [7], 1,000/>1,000 μM; in data set [9] (setting [17]) it was >1,000/>1,000 μM. Besides, the MIC in data set [4] (setting [14]) is >1,000/>1,000 μM; in data set [6] (setting [16]), 1,000/>1,000 μM; in data set [7] it was 1,000/>1,000 μM; in data set [9] (setting [18]) it was >1,000/>1,000 μM.

As a reminder, the EC50 is the concentration giving half of the maximal effect. As a reminder, the MBC is the smallest concentration meeting the test's criterion for killing. Higher therefore signals less potent killing. In general, MIC refers to the least concentration at which growth counts as inhibited.
